Consider one compound from US8017350B2, “Glimepiride- and insulin-induced glycosylphosphatidylinositol-specific phospholipase C regulation” (Sanofi-Aventis Deutschland GmbH, priority 2004, dated 2011).

In assay [1] the test system is isolated rat adipocytes. The assay can be described thus: glucose transport assay (2-deoxy-D-[3H]glucose). The assay is classed as cell-based. The following applies: 50 μM. On the procedure:
Glucose transport was determined as described in “Müller, G. et al., (1994) J. Cell Biol. 126: 1267-1276” by incubation of 10,000-20,000 washed adipocytes with 2-deoxy-D[2,6-^3H]glucose at 50 μM final conc. (0.33 μCi/ml) in 50-μl portions for 20 min at 37° C. in the absence or presence of 20 μM cytochalasin B.
Table 3: Isolated rat adipocytes were incubated in the presence of methyl-β-cyclodextrin (m-β-CD, 10 mM, 50 min), CBDP (300 μM, electroporation, followed by washing and subsequent incubation for 30 min), PIG41 (10 μM, 15 min), sodium orthovanadate (1 mM, 15 min), trypsin (10 μg/ml, 15 min followed by treatment with 0.5 M NaCl and subsequent washing) and N-ethylmaleimide (1 mM, 5 min followed by addition of DTT). After addition of GPI-2350 (50 μM final conc.) to one half of the adipocyte suspension and further incubation (60 min, 37° C.), portions of the cells were assayed for 5′-Nuc activity in the isolated IcDIGs. The increase in 5′-Nuc during the basal incubation was set at 100 arb. units. Other portions of the cells (after 15 min incubation) were assayed for glucose transport which was set at 100 arb. units for the basal incubation. Means+SD of at least 3 independent cell incubations with activity measurements in triplicate each are given.
FIG. 8: Effect of GPI-2350 on the glimepiride/insulin-induced metabolic activity. Isolated rat adipocytes were treated (5 min, 37° C.) without or with GPI-2350 (Panel A, 50 μM; Panel B, increasing conc.; Panel C, 5 μM, 50 μM) and then incubated (15 min, 37° C.) in the absence or presence of insulin (Ins, 10 nM) or glimepiride (Gli, 20 μM or increasing conc.) as indicated. The adipocytes were then assayed for glucose transport and isoproterenol-induced lipolysis. The activity is given relative to the absence of GPI-2350 in the control reaction (Panels A, basal) or in the insulin- and glimepiride-stimulated state (Panels B and C, set at 100). Means+SD of at least 5 independent cell incubations with activity measurements in triplicate each are given.

Assay [2] relates to GPI-proteins 5′-Nuc, Gce1 and aP in isolated rat adipocytes. The assay can be described thus: localization of lipolytically cleaved and uncleaved GPI-proteins at hcDIGs, IcDIGs and total plasma membranes (TX-114 partitioning). The assay is classed as cell-based.
Assay [3] has as its target T1, PI-PLC (B. cereus) (Bacillus cereus, UniProt P14262).
T1 construct: purchased SigmalAldrich (Deisenhofen, Germany)
The assay can be described thus: PI-PLC (B. cereus) assay, AChE substrate, TX-114 partitioning. It counts as biochemical. As for the experimental part:
(§1) GPI-PLD (rat serum) was assayed according to “Hari et al. (1997) Biochim. Biophys. Acta 1355: 293-302” by incubation with 10 μl of human placental aP solution (100 U/ml in 10 mM Hepes/NaOH, pH 7.0, 150 mM NaCl) in 100 μl of 200 mM Tris/maleate (pH 7.0) and 1% Nonidet P-40 for 10 min at 37° C. and subsequent termination of the reaction by addition of 0.4 ml of ice-cold stop buffer (10 mM Hepes/NaOH, pH 7.0, 150 mM NaCl, 0.1 mM MgCl2 and 0.01 mM zinc acetate). GPI-PLC (T. brucei) was assayed as described in “Mensa-Wilmot et al. (1995) Methods Enzymol. 250: 641-655” by incubation with 5 μl of human placental aP solution (see above) in 50 μl of 50 mM Tris/HCl (pH 8.0), 0.25% Nonidet P-40 and 5 mM EDTA for 30 min at 37° C. and subsequent termination of the reaction by addition of 0.45 ml of stop buffer. PI-PLC (B. cereus) and adipocyte GPI-PLC (5-25 μg plasma membranes or hc/lcDIGs) were assayed by incubation with 10 μl of bovine erythrocyte acetylcholinesterase (AChE) solution (12 U/ml in 10 mM Tris/HCl, pH 7.4, 144 mM NaCl, 0.1% TX-100) in 100 μl of 20 mM Hepes/KOH (pH 7.8), 144 mM NaCl, 0.1% TX-100, 0.2 mM MgCl2 for 1 h at 25° C. and subsequent termination by adding 5 μl of glacial acetic acid and then 0.4 ml of 10 mM Tris/HCl (pH 7.4), 144 mM NaCl. Each reaction mixture was subjected to TX-114 partitioning (see below).
(§2) Pelleted hc/lcDIGs (10-50 μg protein) or (G)PI-PLC reaction mixtures (0.5 ml) were separated into amphiphilic and hydrophilic proteins using partitioning between TX-114-enriched and depleted phases according to “Bordier, C., (1981) J. Biol, Chem. […]” by suspending in 1 ml of ice-cold TX-114 (1%), 25 mM Tris/HCl (pH 7.4), 144 mM NaCl or mixing with 0.5 ml of ice-cold TX-114 (2%), respectively. After incubation for 1 h on ice, the mixture was layered onto a cushion of 0.4 ml of 0.25 M sucrose and 25 mM Tris/HCl (pH 7.4) on ice. Phase separation was induced by warming up to 37° C. and subsequent centrifugation (10,000×g, 1 min). After re-extraction of the lower TX-114-enriched phase, aliquots of the pooled upper TX-114-depleted phase were measured for 5′-Nuc, aP and AChE activity or precipitated (15 polyethylene glycol 4000) for SDS-PAGE analysis.
(§3) Table 1: GPI-PLC of hcDIGs from rat adipocytes, GPI-PLC from T. brucei and PI-PLC from B. cereus were incubated with solubilized and partially purified bovine erythrocyte AChE or human placental aP in the absence or presence of increasing concentrations (0.05 μM-1 mM) of the inhibitors indicated under appropriate conditions (see Materials and Methods). Cleavage rate was calculated from the amount of hydrophilic AChE and aP activity recovered with the TX-114-depleted phase upon TX-114 partitioning. Means+SD from at least 3 independent incubations with partitioning/enzyme assays in quadruplicate are given. n.a., not applicable.
(§4) Purified (G)PI-PLC/D from B. cereus, rat serum and T. brucei as well as total plasma membranes (PM) and hc/lcDIGs prepared from isolated rat adipocytes were incubated (10 min, 30° C.) with increasing concentrations of GPI-2350 and then assayed for amphiphilic-to-hydrophilic conversion of AChE and aP by TX-114 partitioning (see Materials and Methods). The lipolytic activity was calculated as % of the control reaction in the absence of GPI-2350 (set at 100%). Means+SD of at least 4 independent incubations with AChE and aP activity measurements in triplicate each are given.

Assay [4] addresses T2, GPI-PLC (T. brucei) (Trypanosoma brucei brucei, UniProt P09194).
T2 construct: purchased Oxford Glycosystems (Oxford, UK)
The assay can be described thus: GPI-PLC (T. brucei) assay, human placental aP substrate, TX-114 partitioning. The assay is classed as biochemical. As for the experimental part:
as §1, §2, §3, §4

Where [5] appears, read: amphiphilic version in hcDIGs of basal adipocytes set at 100, GPI-2350 50 μM, insulin 10 nM, glimepiride 20 μM.
Setting [6] is: IC50, Table 1, inhibitor 0.05 μM-1 mM.
Where [7] appears, read: upon 10-fold dilution with excess of fresh GPI-protein substrate.

Broadly, the IC50 is the concentration that gives 50% inhibition. The term inhibition denotes the percentage by which the read-out fell short of the control.

Structures are written as SMILES.

T2 sequence (P09194 whole entry): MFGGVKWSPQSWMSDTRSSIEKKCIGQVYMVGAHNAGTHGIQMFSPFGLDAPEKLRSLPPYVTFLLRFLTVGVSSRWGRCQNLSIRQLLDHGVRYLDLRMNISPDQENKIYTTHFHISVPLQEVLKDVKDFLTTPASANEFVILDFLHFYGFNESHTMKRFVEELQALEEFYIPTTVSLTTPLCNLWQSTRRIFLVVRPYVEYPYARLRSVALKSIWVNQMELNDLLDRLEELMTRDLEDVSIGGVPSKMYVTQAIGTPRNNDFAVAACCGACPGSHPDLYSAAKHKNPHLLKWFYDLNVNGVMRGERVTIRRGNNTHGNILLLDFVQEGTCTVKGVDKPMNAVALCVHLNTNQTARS
T1 sequence (P14262 32-329 limits assumed): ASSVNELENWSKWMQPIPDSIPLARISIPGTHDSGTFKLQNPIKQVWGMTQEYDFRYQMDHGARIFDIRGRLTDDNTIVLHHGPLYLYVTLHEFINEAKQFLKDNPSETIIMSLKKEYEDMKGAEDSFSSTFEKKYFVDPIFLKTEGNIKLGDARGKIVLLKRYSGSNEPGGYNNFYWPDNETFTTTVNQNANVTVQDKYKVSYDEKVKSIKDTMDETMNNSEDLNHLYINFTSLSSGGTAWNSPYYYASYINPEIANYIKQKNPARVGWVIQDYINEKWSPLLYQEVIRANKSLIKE

Take `CCCCCCCCCCCCP1(=O)O[C@@H]2[C@H](O)[C@@H](O)[C@H](O)[C@@H](O)[C@@H]2O1` (stereo partly drawn) [GPI-2350, myo-inositol-1,2-cyclo-dodecylphosphonic acid]: the “effect on stimulation of glucose transport in response to glimepiride” value in assay [1] is “almost complete blockade”. In addition, the “effect on insulin/glimepiride-induced increase in hydrophilic GPI-proteins in plasma membranes” value in assay [2] (50 μM) is “completely blocked”. Also, the “aP hydroph. IcDIGs” value in assay [2] (setting [5]) was 2 ± 2 arb. units. The “aP hydroph. hcDIGs” value in assay [2] (setting [5]) is 10 ± 1 arb. units. For the same compound, the IC50 in assay [3] (setting [6]) was 10 to 20 µM; in assay [3] (apparent IC50, FIG. 2), 10 µM; in assay [4] (setting [6]), 2 to 5 µM; in assay [4] (apparent IC50, FIG. 2) it was 2 µM. Further, the inhibition at 1000 µM in assay [3] (read-out: inhibition % at 1 mM) was determined as 75%; in assay [4] (read-out: inhibition % at 1 mM) it was 85%. In addition, the “reversal of half-maximal inhibition” value in assay [3] (setting [7]) and in assay [4] (setting [7]) was “completely reversed” throughout.
